{"source": "patent US9925222B2", "about": "“Gut barrier dysfunction treatment and prevention” (ALBERT EINSTEIN COLLEGE OF MEDICINE OF YESHIVA UNIVERSITY, priority 2012, dated 2018)", "key": {"[1]": {"conditions": "Pubchem, ST093573; cited from earlier work"}, "[2]": {"tested_on": "Tnf-α, Zo-1 and E-cad mRNA expression in gut epithelium", "experiment": "Ex vivo treatment of gut mucosa with OLA, rescue with indole and IPA, qPCR", "format": "cell-based", "conditions": "OLA 5 mg/ml, 3 h ex vivo; all mice genotypes", "description": "Freshly isolated gut mucosa were incubated in the presence of OLA (5 mg/ml) for 3 h at 37° C., 5% CO2 (13). After 3 h of OLA treatment, enterocytes were isolated and pooled for RNA isolation. […] Experiments were performed at least two independent times. OLA has […] (log P), thus is unsuitable for in vivo studies of luminal bacterial enzyme inhibition (Pubchem, ST093573). 2.0 μg of total RNA extracted from pooled apical enterocytes with TRIzolR (Invitrogen), were reverse transcribed with random hexamer primers and SuperScriptTM III-RT enzyme (Invitrogen). Quantitative PCR (qPCR) reactions using TaqMan universal PCR master mix and TaqMan probes containing FAM as the 5' reporter fluorochrome and tetramethylrhodamine (MGB) as the 3' quencher fluorochrome, were performed in triplicate for each sample and analyzed on the ABI Prism 7900HT system. Primers and minor groove binder/non-fluorescent quencher probes used for PCR amplification were obtained from Applied Biosystems as well as the following assays on demand: […] Controls include RT-minus RNA samples. PCR reaction conditions for all assays were set at 50° C. for 2 minutes, 95° C. for 10 minutes, followed by 40 cycles of amplification (95° C. for 15 seconds then 60° C. for 1 minute)."}}}
{"compound": "NC(CC1C(=O)Nc2ccccc21)C(=O)O", "note": "[OLA, Oxindolyl L-alanine]", "values": [{"measurement": "Predicted oral bioavailability (log P)", "setting": "[1]", "value": "high"}, {"measurement": "Enterocyte Tnf-α mRNA expression after OLA", "setting": "[2]", "value": "enhanced enterocyte Tnf-α mRNA expression"}, {"measurement": "Expression of junctional regulators (Zo-1 and E-cad) after OLA", "setting": "[2]", "value": "diminished expression of junctional regulators"}]}
